Measurements from patent EP1743642A1 (priority 2005, dated 2007).

Key:
cannabinoid receptors [1] = experiment: Mouse tetrad model, agonistic effect; assay type: in vivo, Male NMRI mice; set-up: key to Agonistic effect D: Sedation: % of sedation = mean score (0–3 scale)/3 × 100; details: 5 mg/kg i.v.
Text: (§1) Substances with affinity for cannabinoid receptors are known to produce a wide range of pharmacological effects. It is also known that intravenous administration of a substance with affinity for cannabinoid receptors in mice produces analgesia , hypothermia, sedation and catalepsy. Individually, none of these effects can be considered as proof that a tested substance has affinity for cannabinoid-receptors, since all of these effects are common for various classes of centrally active agents. However, substances, which show all of these effects, i.e. substances that are active in this so-called tetrad model are considered to have affinity for the cannabinoid receptors. It has further been shown that cannabinoid receptor antagonists are higly effective in blocking the effects of a cannabinoid agonist in the mouse tetrad model.
(§2) The tetrad model is described, for example, in the publication of A. C. Howlett et al, International Union of Pharmacology XXVII. Classification of Cannabinoid Receptors, Pharmacol Rev 54, 161-202 , 2002 and David R. Compton et al., "In-vivo Characterization of a Specific Cannabinoid Receptor Antagonist (SR141716A) :Inhibition of Tetrahydrocannbinol- induced Responses and Apparent Agonist Activity", J. Pharmacol. Exp. Ther. 277 , 2, 586-594, 1996. The corresponding parts of the description are hereby incorporated by reference.
(§3) Male NMRI mice with a weight of 20-30 g (Harlan, Barcelona, Spain) are used in all of the following experiments.
(§4) Before testing in the behavioral procedures given below, mice are acclimatized to the experimental setting. Pre-Treatment control values are determined for analgesia hot plate latency (in seconds), rectal temperature, sedation and catalepsy.
(§5) In order to determine the agonistic activty of the substance to be tested, the mice are injected intravenously with the substance to be tested or the vehicle alone. 15 minutes after injection, latency in hot plate analgesia is measured.
(§6) Rectal temperature, sedation and catalepsy are measured 20 minutes after injection.
(§7) The hot plate analgesia is determined according to the method described in Woolfe D. et al. "The evaluation of analgesic action of pethidine hydrochloride (Demerol)", J. Pharmacol. Exp. Ther. 80, 300-307,1944. The respective description is hereby incorporated by reference and forms part of the present disclosure.
(§8) The mice are placed on a hot plate (Harvard Analgesimeter) at 55 ± 0.5 °C until they show a painful sensation by licking their paws or jumping and the time for these sensations to occur is recorded. This reading is considered the basal value (B). The maximum time limit the mice are allowed to remain on the hot plate in absence of any painful response is 40 seconds in order to prevent skin damage. This period is called the cut-off time (PC).
(§9) Fifteen minuts after the administration of the substance to be tested, the mice are again placed on the hot plate and the afore described procedure is repeated. This period is called the post-treatment reading (PT).
(§10) The degree of analgesia is calculated from the formula : %MPEof Analgesia = (PT−B)/(PC−B) × 100 [formula] MPE = Maximum possible effect.
(§11) Sedation and ataxia is determined according to the method described in Desmet L. K. C. et al. "Anticonvulsive properties of Cinarizine and Flunarizine in Rats and Mice", Arzneim. -Forsch. (Frug Res) 25, 9, 1975. The respective description is hereby incorporated by reference and forms part of the present disclosure.
The chosen scoring system is • 0: no ataxia; • 1: doubful; • 2: obvious calmness and quiet; • 3 pronounced ataxia; • prior to as well as after treatment.
The percentage of sedation is determined according to the formula: %of sedation = arithmetic mean/3 × 100 [formula] […]

[2] = target: T1, transfected human CB1 receptors (Homo sapiens, UniProt P21554); experiment: In-vitro determination of affinity to CB1 receptor (radioligand [3H]-CP55940); assay type: binding
T1 construct: purchased Receptor Biology, Inc
Procedure: (§12) I. In-vitro determination of affinity to CB1/CB2-Receptors
(§13) The in-vitro determination of the affinity of the inventive substituted pyrazoline compounds to CB1/CB2-Rezeptors is carried out as described in the publication of Ruth A. Ross, Heather C. Brockie et al., "Agonist-inverse agonist characterization at CB1 and CB2 cannabinoid receptors of L-759633, L759656 and AM630", British Journal of Pharmacology, 126, 665-672, (1999), whereby the transfected human CB1 and CB2 receptors of Receptor Biology, Inc. are used. The radioligand used for both receptors is [^3H]-CP55940. The respective parts of the description is hereby incorporated by reference and forms part of the present disclosure.

[3] = target: T2, transfected human CB2 receptors (Homo sapiens, UniProt P34972); experiment: In-vitro determination of affinity to CB2 receptor (radioligand [3H]-CP55940); assay type: binding
T2 construct: purchased Receptor Biology, Inc
Procedure: as §12, §13

cannabinoid receptors [4] = experiment: Mouse tetrad model, antagonistic effect against Win 55212-2; assay type: in vivo, Male NMRI mice; details: 5 mg/kg i.v. prior to Win 55212-2 in a dose of 1,25mg/kg i.v.
Text: as §1, §2, §3, §4, §5, §6
In order to determine the antagonistic activity the identical procedure is used as for the determination of the agonistic effects, but with the difference that the substance to be evaluated for its antagonistic activity is injectected 5 minutes before the intravenous injection of 1.25 mg/kg Win-55,212 a known cannabinoid-receptor agonist.
as §7, §8, §9, §10, §11
The chosen scoring system is • 0: no ataxia; • 1: doubful; • 2: obvious calmness and quiet; • 3 pronounced ataxia; • prior to as well as after treatment. […]

[5] = In-vivo testing for regulation of triglycerides in blood, diet-induced obese mice (study VI); details: high fat diet, 30 mg/kg/day p.o., day 28 after beginning of the treatment; p<0.005 vs. vehicle
Procedure: In a second set of experiments carried out similar to the tests shown above the TG (triglyceride) levels of diet-induced obese mice in blood were determined. Mice receiving a high fat diet were - after a feeding period of […] - either treated p.o. with vehicle (0,5 % HPMC) or with the compound according to example 0 (30 mg/kg/day p.o.). TG levels in blood were determined on day 28 after beginning of the treatment.

[6] = In-vivo testing for regulation of triglycerides in blood, obese mice on high fat diet (study V); set-up: species or system male mice B6 Lep ob/ob; details: 30 mg/kg/day po, 14 days
Text: The study was done using six weeks old male mice B6 Lep ob/ob, obtained from Charles River (France). Mice were divided in 3 groups : I (control), II (vehicle), III (example 0).
The animals of the group I received the standard diet (D-12450B, Research Diets, NJ, USA).
The animals of the groups II and III were fed with a High Fat Diet (D-12492, Research Diets, NJ, USA), in both cases for 7 weeks (References 1 and 2).
The animals of the groups III were fed with a High Fat Diet (D-12492, Research Diets, NJ, USA), in both cases for 7 weeks (References 1 and 2).
At the end of the feeding period of 7 weeks, it was started the treatment period (14 days): Group II mice received the vehicle (10 ml/kg/day, po, of the aqueous solution of acacia gum, 5% W/V). Group III was administered with 30 mg/kg/day, po, of the inventive compound 5-(4-chlorophenyl)-1-(2,4-dichlorophenyl)-4,5-dihydro-pyrazole-3-carboxylic acid according to Example 0. Group I didn't received any treatment. The three groups of mice had the same diet than in the previous period.
At the end of the 14 days period of treatment, the blood levels of triglicerides of the animals were determined. […]

T2 sequence (P34972 whole entry): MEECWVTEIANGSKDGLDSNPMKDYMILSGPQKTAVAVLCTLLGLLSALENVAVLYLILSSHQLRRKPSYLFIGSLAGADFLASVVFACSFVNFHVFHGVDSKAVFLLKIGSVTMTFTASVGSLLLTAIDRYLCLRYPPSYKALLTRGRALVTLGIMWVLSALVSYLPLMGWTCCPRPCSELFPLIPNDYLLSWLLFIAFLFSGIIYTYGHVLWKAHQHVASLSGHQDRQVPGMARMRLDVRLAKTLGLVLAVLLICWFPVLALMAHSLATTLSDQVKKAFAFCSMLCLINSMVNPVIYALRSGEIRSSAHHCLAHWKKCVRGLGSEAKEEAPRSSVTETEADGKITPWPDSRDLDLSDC
T1 sequence (P21554 whole entry): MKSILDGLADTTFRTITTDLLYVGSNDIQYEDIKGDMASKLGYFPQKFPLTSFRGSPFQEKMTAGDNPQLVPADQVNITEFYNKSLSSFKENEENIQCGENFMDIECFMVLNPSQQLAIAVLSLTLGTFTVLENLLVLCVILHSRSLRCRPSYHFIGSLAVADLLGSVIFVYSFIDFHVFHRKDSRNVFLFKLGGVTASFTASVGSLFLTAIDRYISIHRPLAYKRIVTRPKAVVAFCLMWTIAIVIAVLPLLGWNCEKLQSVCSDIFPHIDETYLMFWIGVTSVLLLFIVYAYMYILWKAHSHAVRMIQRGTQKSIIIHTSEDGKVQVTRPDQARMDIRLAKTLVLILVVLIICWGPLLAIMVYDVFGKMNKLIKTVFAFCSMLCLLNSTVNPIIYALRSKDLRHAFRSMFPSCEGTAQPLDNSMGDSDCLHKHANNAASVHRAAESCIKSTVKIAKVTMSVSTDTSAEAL

Compound | Agonistic effect A: Hot-Plate test (cannabinoid receptors [1]) | Agonistic effect B: Hypothermia (cannabinoid receptors [1]) | Agonistic effect C: Catalepsy (cannabinoid receptors [1]) | Agonistic effect D: Sedation (cannabinoid receptors [1]) | Ki [2] [nM] | Ki [3] [nM] | Antagonistic Effect A: Hot-Plate test (cannabinoid receptors [4]) | Antagonistic Effect B: Hypothermia (cannabinoid receptors [4]) | Antagonistic Effect C: Catalepsy (cannabinoid receptors [4]) | Antagonistic Effect D: Sedation (cannabinoid receptors [4]) | TG (triglyceride) levels [5] [mmol/L] | Triglicerides, whole blood levels (mg/dl) ([6]; N.S. compared with Group I) | Relative levels ([6]; triglicerides relative to Group I (standard diet = 100%)) [%]
O=C(NN1CCCCC1)C1=NN(c2ccc(Cl)cc2Cl)C(c2ccc(Cl)cc2)C1 (stereo not shown) [Example 1, N-piperidinyl-5-(4-chlorophenyl)-1-(2,4-dichlorophenyl)-4,5-dihydro-1H-pyrazole-3-carboxamide] | 0 | 0 | 0 | 0 | < 25 | > 1000 | 74 | 100 | 100 | 100 |  |  | 
O=C(C1=NN(c2ccc(Cl)cc2Cl)C(c2ccc(Cl)cc2)C1)N1CCCCC1 (stereo not shown) [Example 5, [5-(4-Chloro-phenyl)-1-(2,4-dichloro-phenyl)-4,5-dihydro-1H-pyrazol-3-yl]-piperidin-1-yl-methanone] | 0 | 50 | 0 | 0 |  | ~1000 | 50 | 40 | 20 | 20 |  |  | 
O=C(O)C1=NN(c2ccc(Cl)cc2Cl)C(c2ccc(Cl)cc2)C1 (stereo not shown) [Example 0, 5-(4-chlorophenyl)-1-(2,4-dichlorophenyl)-4,5-dihydro-pyrazole-3-carboxylic acid] |  |  |  |  |  |  |  |  |  |  | 0.80 ± 0.07 | 67.5 (N.S.) mg/dl | 110.6
